# Data as given in publication PMC7300217, “Surfactin Like Broad Spectrum Antimicrobial Lipopeptide Co-produced With Sublancin From Bacillus subtilis Strain A52: Dual Reservoir of Bioactives” (Frontiers in Microbiology, 2020).
# Legend:
# Assay type in all cases: cell-based, Candida albicans
# C. albicans MTCC 183 [1] = assay: Scanning electron microscopy of treated cells; details: 2X and 5X MIC, 37°C overnight
# Protocol: The effect of peptide on cell membrane was determined by scanning electron microscopy (SEM) and transmission electron microscopy (TEM) after treatment with AMPs. For this, test strains S. aureus MTCC 1430 and C. albicans MTCC 183 were cultured to mid-log phase in respective media. The cells were harvested by centrifugation at 10,000 × g for 10 min, washed thrice with 1X PBS, and re-suspended to adjust an OD600 of 0.2. […] Following the incubation, cells were processed for SEM and TEM as described ([Raje et al., 2006]). The specimens were completely dried using freeze drier, coated with gold, and visualized under a scanning electron microscope (ZEISS, Germany). For TEM (JEOL, JEM 2100, United States), cells were treated with peptide, washed, and subjected to negative stain 0.1% sodium phosphotungstate (Sigma, United States) for visualization. Effect of A52 lipopeptide on fungal spore was observed through a phase contrast microscope (Nickon H600L, Japan).
# [2] = test system: C. albicans 400054 (clinical isolate); assay: MIC, microtiter plate dilution assay; details: 5 × 10^5 CFU/ml, 37°C, OD600 after 48 h, triplicate
# Protocol: (§1) The antimicrobial activity was tested by well diffusion assay as mentioned earlier ([Singh et al., 2014]). Strain A52 was grown for 24 h in 500 ml of nutrient broth (NB, Hi-media, India) using 1000 ml flask and subsequently cells were removed by centrifugation (10,000 rpm for 15 min at 4°C). Supernatant was filtered through 0.22 μm filter (Millipore, United States) to obtain cell-free fermented broth (CFB) that was used for antimicrobial assay (50 μl) against various indicator strains and the activity was measured as diameter of inhibition zone. Test strains used were Staphylococcus aureus (MTCC 1430), Bacillus subtilis (MTCC 121), B. firmus (MTCC 488), B. licheniformis (MTCC 429), B. thuringiensis (MTCC 1953), Escherichia coli (MTCC 1610), Micrococcus luteus (MTCC 106), Steptococcus pyrogens (MTCC 1928), S. anginosus (MTCC 1929), S. oralis (MTCC 2696), S. mutans (MTCC 497), Candida albicans (MTCC 1637), C. albicans (MTCC 183), C. albicans (MTCC 227), C. tropicalis (MTCC 184), C. glabrata (MTCC 3019), C. haemulonii (MTCC 2766), and C. inconsplicue (MTCC 1074). The phytopathogenic fungi employed in this study were Alternaria brassicicola (MTCC 2102), Colletotrichum acutatum (MTCC 1037), and Fusarium moniliforme (MTCC 158). Clinical isolates of Candida were provided by National Culture Collection of Pathogenic Fungi (NCCPF), PGIMER, Chandigarh, India.
# (§2) The minimum inhibitory concentration (MIC) of HPLC purified peptides was evaluated by using microtiter plate dilution assay. The peptide concentration was estimated using BCA protein assay (Thermo Fisher Scientific, United States) method as described by manufacturer. Actively growing test strains (5 × 10^5 CFU/ml) were inoculated in a 96-well plate with different concentrations of the peptides and plates were incubated for 24–48 h at 37°C (final volume in each well is 200 μl). OD was measured at 600 nm after 24 and 48 h for bacteria and yeast, respectively, using ELISA microplate reader (Thermo, United States). MIC against phytopathogenic fungi was determined using 96-well microtiter plate assay ([Kaur et al., 2016]). In 96-well microplates, 100 μl of fungal spore suspension (1 × 10^5 spores/ml) prepared in potato dextrose broth (PDB, Hi-media, India) was mixed with100 μl of fresh PDB containing different concentrations of lipopeptide. Control well contained 100 μl of fungal spore suspension and 100 μl of only medium. The microplates were incubated at 25°C and readings were recorded at 600 nm after 48 h. The lowest concentration showing no growth was considered as MIC. Each test was done in triplicate and optical density (OD600) of peptide treated wells were compared with uninoculated wells (blank medium control).
# C. albicans MTCC 227 = assay: MIC, microtiter plate dilution assay; details: 5 × 10^5 CFU/ml, 37°C, OD600 after 48 h, triplicate
# Protocol: as §1, §2
# C. albicans MTCC 1637 = assay: MIC, microtiter plate dilution assay; details: 5 × 10^5 CFU/ml, 37°C, OD600 after 48 h, triplicate
# Protocol: as §1, §2
# C. albicans MTCC 183 [3] = assay: MIC, microtiter plate dilution assay; details: 5 × 10^5 CFU/ml, 37°C, OD600 after 48 h, triplicate
# Protocol: as §1, §2
substance,measurement,setting,value
"Glu^1-Leu/Ile^2-Leu^3-Val^4-Asp^5-Leu^6-Leu/Ile^7 and a β-OH hexadecane fatty acid chain (lariat or depsi) [Lipopeptide A52, cyclic surfactin-like lipopeptide, 7 amino acids and C16 β-hydroxy fatty acid, 1061.9 Da, from B. subtilis strain A52]",cell morphology in SEM images,C. albicans MTCC 183 [1],disintegrated outer cell membrane
same,"MIC value, C. albicans 400054",[2],16 µg/mL
same,"MIC value, C. albicans MTCC 227",C. albicans MTCC 227,24 µg/mL
same,"MIC value, C. albicans MTCC 1637",C. albicans MTCC 1637,28 µg/mL
same,"MIC value, C. albicans MTCC 183",C. albicans MTCC 183 [3],12 µg/mL
